Results as given in patent US10730863B2, “Bridged bicyclic compounds as farnesoid X receptor modulators” (BRISTOL-MYERS SQUIBB COMPANY, priority 2017, dated 2020).

Each molecule was assayed against FXR (Homo sapiens (Human), UniProt Q96RI1) (assay: FXR EC50 (FXR agonist activity reported with each example)).
Type: cell-based

Chain of FXR (Q96RI1 262-486): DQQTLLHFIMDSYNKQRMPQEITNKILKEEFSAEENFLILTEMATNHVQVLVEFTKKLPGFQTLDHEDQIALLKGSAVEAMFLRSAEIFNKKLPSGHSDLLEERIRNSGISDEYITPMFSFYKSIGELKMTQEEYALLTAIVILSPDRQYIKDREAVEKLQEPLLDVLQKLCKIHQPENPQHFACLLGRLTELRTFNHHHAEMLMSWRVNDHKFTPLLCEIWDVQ

SMILES	EC50
CC(C)Oc1ccc(C(=O)O)c2ccc(C34CCC(OCc5c(-c6c(Cl)cncc6Cl)noc5C5CC5)(CC3)CC4)nc12 [Example 391, 2-(4-((5-cyclopropyl-3-(3,5-dichloropyridin-4-yl)isoxazol-4-yl)methoxy)bicyclo[2.2.2]octan-1-yl)-8-isopropoxyquinoline-5-carboxylic acid]	14 nM
O=C(O)c1ccc(OCC2CC2)c2nc(C34CCC(OCc5c(-c6c(Cl)cncc6Cl)noc5C5CC5)(CC3)CC4)ccc12 [Example 392]	24 nM
O=C(O)c1ccn2c(C#CC34CCC(OCc5c(-c6c(Cl)cncc6Cl)noc5C5CC5)(CC3)CC4)cnc2c1 [Example 393]	270 nM
O=C(O)c1cn2ccc(C#CC34CCC(OCc5c(-c6c(Cl)cncc6Cl)noc5C5CC5)(CC3)CC4)cc2n1 [Example 394]	180 nM
O=C(O)c1cnn2ccc(C#CC34CCC(OCc5c(-c6c(Cl)cncc6Cl)noc5C5CC5)(CC3)CC4)cc12 [Example 395]	120 nM
O=C(O)c1cccn2c(C#CC34CCC(OCc5c(-c6c(Cl)cncc6Cl)noc5C5CC5)(CC3)CC4)cnc12 [Example 397]	48 nM
O=C(O)c1ccc(C(F)(F)F)c2nc(C34CCC(OCc5c(-c6c(Cl)cncc6Cl)noc5C5CC5)(CC3)CC4)ccc12 [Example 398]	30 nM
Cn1cc(C#CC23CCC(OCc4c(-c5c(Cl)cncc5Cl)noc4C4CC4)(CC2)CC3)c2ccc(C(=O)O)cc21 [Example 399]	83 nM
CC(C)Oc1cc(C#CC23CCC(OCc4c(-c5c(Cl)cncc5Cl)noc4C4CC4)(CC2)CC3)cc(C(=O)O)c1 [Example 400]	29 nM
O=C(O)c1cc(C#CC23CCC(OCc4c(-c5c(Cl)cncc5Cl)noc4C4CC4)(CC2)CC3)cc2cn[nH]c12 [Example 401]	74 nM
O=C(O)c1cc(OC2CCC2)c2cc(C#CC34CCC(OCc5c(-c6c(Cl)cncc6Cl)noc5C5CC5)(CC3)CC4)ccc2n1 [Example 402]	52 nM
CCn1nc(C(=O)O)c2ccc(C34CCC(OCc5c(-c6c(Cl)cncc6Cl)noc5C5CC5)(CC3)CC4)nc21 [Example 403]	4 nM
O=C(O)c1cc(C#CC23CCC(OCc4c(-c5c(Cl)cncc5Cl)noc4C4CC4)(CC2)CC3)cn2ccnc12 [Example 404]	140 nM
O=C(O)c1ccc(OC2CCC2)c2nc(C34CCC(OCc5c(-c6c(Cl)cncc6Cl)noc5C5CC5)(CC3)CC4)ccc12 [Example 405]	28 nM
O=C(O)c1ccc(OC2COC2)c2nc(C34CCC(OCc5c(-c6c(Cl)cncc6Cl)noc5C5CC5)(CC3)CC4)ccc12 [Example 406]	54 nM
O=C(O)c1ccc(O)c2nc(C34CCC(OCc5c(-c6c(Cl)cncc6Cl)noc5C5CC5)(CC3)CC4)ccc12 [Example 407]	19 nM
O=C(O)c1ccc(OC2CCCC2)c2nc(C34CCC(OCc5c(-c6c(Cl)cncc6Cl)noc5C5CC5)(CC3)CC4)ccc12 [Example 408]	10 nM
O=C(O)c1ccc(N2CCCC2)c2nc(C34CCC(OCc5c(-c6c(Cl)cncc6Cl)noc5C5CC5)(CC3)CC4)ccc12 [Example 409]	81 nM
O=C(O)c1ccc(N2CCOCC2)c2nc(C34CCC(OCc5c(-c6c(Cl)cncc6Cl)noc5C5CC5)(CC3)CC4)ccc12 [Example 410, 2-(4-((5-cyclopropyl-3-(3,5-dichloropyridin-4-yl)isoxazol-4-yl)methoxy)bicyclo[2.2.2]octan-1-yl)-8-morpholinoquinoline-5-carboxylic acid]	36 nM
O=C(O)c1cc(C#CC23CCC(OCc4c(-c5c(Cl)cncc5Cl)noc4C4CC4)(CC2)CC3)cc2[nH]ncc12 [Example 411]	89 nM
O=C(O)c1ccc(C#CC23CCC(OCc4c(-c5c(Cl)cncc5Cl)noc4C4CC4)(CC2)CC3)c2ncccc12 [Example 412]	10 nM
CN1CCN(c2ccc(C(=O)O)c3ccc(C45CCC(OCc6c(-c7c(Cl)cncc7Cl)noc6C6CC6)(CC4)CC5)nc23)CC1 [Example 413]	1500 nM
O=C(O)c1ccc(OC2CCOCC2)c2nc(C34CCC(OCc5c(-c6c(Cl)cncc6Cl)noc5C5CC5)(CC3)CC4)ccc12 [Example 414]	29 nM
